Measured values as given in patent US10610582B2, “Compound and method for vaccination and immunisation” (PCI Biotech AS, priority 2013, dated 2020).
Like-named read-outs stand apart in the source and are kept apart here.

What was measured:
IFN-γ = assay type: in vivo, C57BL/6 mice; details: day 14 spleen, 10 μg OVA + labelled TLR ligand + PCI, compared with other groups
IL-2 = assay type: in vivo, C57BL/6 mice; details: day 14 spleen, 10 μg OVA + labelled TLR ligand + PCI, compared with other groups
OVA-specific CD8 T-cells = experiment: Vaccination with OVA, Poly(IC) or CpG ODN2395 in mice given OT-1 cells: OVA-specific CD8 T-cells in blood by flow cytometry (Example 3); assay type: in vivo, C57BL/6 mice; details: day 7
Experimental: One day prior to the immunisation, spleens and lymph nodes were isolated from female OT-1 mice, and erythrocytes were removed by lysis (RBC Lysing Buffer Hybri-Max from Sigma-Aldrich) from the homogenised cell suspensions. […] One day or 8 hours later, mice were bled by tail bleeding, and the blood was collected in heparin-containing tubes for analysis of the baseline frequency of OVA-specific CD8 T cells.
The illumination time was 6 minutes.
At the end of the experiment (day 14), the mice were euthanized and the splenocytes analysed ex vivo.

[1] = test system: antigen specific CD8 T-cells; assay type: in vivo, C57BL/6 mice; details: particularly after 2nd immunisation; 200 μg OVA + 50 μg poly(IC) + PCI (150 μg TPCS2a + light), group 5
From the text: The following experimental groups were included:

[2] = test system: antigen-specific CD8+ T-cells (TRP-2 pentamer); experiment: PCI with melanoma antigen peptides (TRP-2 and gp100) and poly(IC) in normal mice, TRP-2 pentamer flow cytometry (Example 6); assay type: in vivo, C57BL/6 mice; details: after 2nd immunisation
[3] = test system: antigen specific CD8 T-cells; assay type: in vivo, C57BL/6 mice; details: 3rd immunisation (day 51) with poly(IC)+PCI after two immunisations with poly(IC) only, group 2
Experimental: The generation of immunological memory was tested by a 3rd immunisation at day 51 with a poly(IC)+PCI treatment. […]

[4] = test system: antigen specific CD8 T-cells; assay type: in vivo, C57BL/6 mice; details: 200 μg OVA + 10 μg poly(IC) injected 2 h before illumination, TPCS2a 150 μg 18 h before illumination
Experimental: In all groups TPCS2a was injected 18 h before illumination, while OVA antigen and poly(IC) was either injected 18 h before illumination in a mixture with TPCS2a, or 2 h before illumination as a separate injection. Illumination was for 6 min with the LumiSource illumination device. […]

[5] = test system: antigen specific CD8 T-cells (HPV pentamer); experiment: PCI with HPV peptide antigen and poly(IC) in normal mice, HPV pentamer flow cytometry (Example 12); details: after three immunisations; 50 μg HPV peptide + 10 μg poly(IC) twice, 3rd with poly(IC) + PCI (100 μg TPCS2a + light), group 6
[6] = test system: antigen specific CD8 T-cells (HPV pentamer); experiment: PCI with HPV long peptide antigen and poly(IC) in normal mice, HPV pentamer flow cytometry (Example 15)
[7] = test system: antigen specific CD8 T-cells (HPV pentamer); experiment: PCI with HPV short peptide antigen and poly(IC) in normal mice, HPV pentamer flow cytometry (Example 16)
[8] = test system: antigen specific CD8 T-cells
[9] = 10 μg OVA with the labelled agent alone (50 μg ODN2395 CpG or 50 μg Poly(IC) without PCI; PCI = 150 μg TPCS2a + light without adjuvant)
[10] = TRP-2 + gp100 peptides (50 μg each) with the labelled agent alone (10 μg poly(IC), or PCI = 100 μg TPCS2a + light), vs untreated
[11] = HPV short peptide with only the labelled agent (only p(IC) or only PCI) for both immunisations

Molecule	IFN-γ production in total spleen cells (ELISA) (IFN-γ)	IL-2 production in total spleen cells (ELISA) (IL-2)	% antigen-specific, CD44+ cells of the total CD8+ cells in blood (OVA-specific CD8 T-cells; 10 μg OVA + 50 μg labelled adjuvant combined with PCI (150 μg TPCS2a + light))	% antigen-specific, CD44+ cells of the total CD8+ cells in blood (OVA-specific CD8 T-cells; [9])	% antigen-specific, CD44+ cells of the total CD8+ cells [1]	% antigen-specific, CD44+ cells of the total CD8+ cells (TRP-2 pentamer) [2, 10]	% antigen-specific, CD44+ cells of the total CD8+ cells (TRP-2 pentamer) ([2]; TRP-2 + gp100 peptides + 10 μg poly(IC) + PCI (100 μg TPCS2a + light), group 4)	% antigen-specific, CD44+ cells of the total CD8+ cells [3]	% antigen-specific, CD44+ cells of the total CD8+ cells [4]	% antigen-specific, CD44+ cells of the total CD8+ cells (HPV pentamer) [5]	% antigen-specific, CD44+ cells of the total CD8+ cells (HPV pentamer) ([6]; HPV long peptide + 10 μg p(IC) twice, without PCI, group 2)	% antigen-specific, CD44+ cells of the total CD8+ cells (HPV pentamer) ([6]; HPV long peptide, one immunisation with PCI+p(IC), one with only PCI, groups 4 and 5)	% antigen-specific, CD44+ cells of the total CD8+ cells (HPV pentamer) ([6]; after two immunisations, both with 50 μg HPV long peptide + 10 μg p(IC) + PCI (100 μg TPCS2a + light), group 3)	% antigen-specific, CD44+ cells of the total CD8+ cells (HPV pentamer) [7, 11]	% antigen-specific, CD44+ cells of the total CD8+ cells (HPV pentamer) ([7]; HPV short peptide, 1st immunisation p(IC)+PCI, 2nd immunisation PCI only, group 6)	% antigen-specific, CD44+ cells of the total CD8+ cells (HPV pentamer) ([7]; after two immunisations, both with 50 μg HPV short peptide + 10 μg p(IC) + PCI (100 μg TPCS2a + light), group 5)	% antigen-specific, CD44+ cells of the total CD8+ cells ([8]; 10 μg OVA + poly(IC) (50 μg 1st, 10 μg 2nd) + red light PCI, group 6)	% antigen-specific, CD44+ cells of the total CD8+ cells ([8]; 100 μg OVA + poly(IC) (50 μg 1st, 10 μg 2nd) + red light PCI, group 7, vs antigen alone)	% antigen-specific, CD44+ cells of the total CD8+ cells ([8]; 10 μg OVA alone or with red light PCI (150 μg TPCS2a, 652 nm) only, after 1st and 2nd immunisation)
CCOCc1nc2c(N)nc3ccccc3c2n1CC(C)(C)O [R848, 1-[4-amino-2-(ethoxymethyl)imidazo[4,5-c]quinolin-1-yl]-2-methylpropan-2-ol]	highest	highest	–	–	–	–	–	–	–	–	–	–	–	–	–	–	–	–	–
Polyinosine-polycytidylic acid [Poly(IC)]	–	–	clear synergistic effect	no significant	substantially better immunisation than only poly(IC) (group 4) or only PCI (group 3)	no significant increase in antigen-specific cells	clear synergistic effect leading to a significant increase in the number of antigen-specific CD8+ T-cells	did not seem to boost immunisation to any significant degree	immune response is enhance	HPV-specific immune response was induced	no effect	weaker, but still significant immune response	strong HPV-specific immune response	no immune response	significant immune response	significant immune response	required to achieve an immune response	substantially better	–
tetraphenyl chlorin disulfonate [PCI]	–	–	–	substantially more potent than either of these adjuvants	–	no significant increase in antigen-specific cells	–	–	–	–	–	–	–	no immune response	–	–	–	–	no immunisation effect
